From the supplement of paper PMC4977894
± gives the standard deviation of the averaged measurements.

Key:
[1] = system: Homo sapiens (human subject panel, olfactory perception); assay: perceived odor pleasantness rating (rating 0-100); higher = more pleasant
Outline: (§1)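 Stimuli were molecules diluted in paraffin oil at high and low concentrations, with 1 mL of each sniffed in randomized order across ten visits of 100 stimuli. Participants were 55 healthy humans aged 18–50, excluding the six lowest performers. Subjects who smelled a stimulus moved a computerized slider away from its starting point of 50, and positions were rescaled to 0–100. Familiarity, intensity and pleasantness are each reported as an average over subjects.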

[2] = system: Homo sapiens (human subject panel, olfactory perception); assay: perceived odor intensity rating (rating 0-100); higher = stronger perceived smell
Outline: as §1

[3] = system: Homo sapiens (human subject panel, olfactory perception); assay: perceived odor familiarity rating (rating 0-100); higher = more familiar
Outline: as §1

[4] = odor dilution in paraffin oil: 1/100,000
[5] = odor dilution in paraffin oil: 1/10,000,000
[6] = odor dilution in paraffin oil: 1/1,000
[7] = odor dilution in paraffin oil: 1/10

Compound | perceived odor pleasantness rating [1, 4] | perceived odor pleasantness rating [1, 5] | perceived odor intensity rating [2, 4] | perceived odor intensity rating [2, 5] | perceived odor familiarity rating [3, 4] | perceived odor familiarity rating [3, 5] | perceived odor pleasantness rating [1, 6] | perceived odor intensity rating [2, 6] | perceived odor familiarity rating [3, 6] | perceived odor pleasantness rating [1, 7] | perceived odor intensity rating [2, 7] | perceived odor familiarity rating [3, 7]
COc1ccccc1O [Guaiacol (replicate)] | 37.6 ± 25 | 36.9 ± 19 | 67.4 ± 29 | 54.8 ± 28 | 47.2 ± 30 | 44 ± 30 | – | – | – | – | – | –
CC(=O)c1ccccc1 [acetophenone] | 52.7 ± 26 | – | 45.1 ± 29 | – | 42.6 ± 30 | – | 52.8 ± 30 | 81.5 ± 17 | 61.3 ± 31 | – | – | –
CC(=O)Oc1ccc(C)cc1 [p-Tolyl acetate] | 29 ± 25 | – | 60.9 ± 28 | – | 46.8 ± 31 | – | 47 ± 26 | 72.6 ± 19 | 59.6 ± 28 | – | – | –
COc1cccc(OC)c1 [1,3-Dimethoxybenzene] | 45.8 ± 28 | – | 32.6 ± 30 | – | 33.2 ± 27 | – | 49.7 ± 26 | 68.4 ± 22 | 54.1 ± 26 | – | – | –
CCCCCCCCCCC(=O)OCC [Ethyl undecanoate] | – | – | – | – | – | – | 50.1 ± 28 | 38.8 ± 28 | 46.8 ± 28 | 52.8 ± 26 | 69.9 ± 21 | 49.9 ± 34
NCCc1ccc(O)cc1 [Tyramine] | – | – | – | – | – | – | 58 ± 26 | 20.4 ± 25 | 35.4 ± 34 | 34.7 ± 28 | 53.2 ± 33 | 51 ± 31
c1cnccn1 [pyrazine] | 39.6 ± 24 | – | 38.5 ± 32 | – | 36.8 ± 28 | – | 44.8 ± 21 | 18.9 ± 22 | 35.4 ± 27 | – | – | –
C/C=C/C=C/CO [trans,trans-2,4-Hexadien-1-ol] | 49.6 ± 23 | – | 14.4 ± 18 | – | 36.4 ± 30 | – | 48 ± 23 | 45.5 ± 30 | 45.1 ± 32 | – | – | –
COc1cc(C=O)ccc1O [vanillin] | – | – | – | – | – | – | 84 ± 20 | 74.4 ± 22 | 80.7 ± 21 | 86.3 ± 15 | 72.1 ± 23 | 82.6 ± 18
CCOC(=O)CC(C)O (stereo unspecified) [ethyl-3-hydroxybutyrate] | 42 ± 23 | – | 38.3 ± 32 | – | 37.4 ± 29 | – | 75.4 ± 18 | 58.1 ± 32 | 62 ± 31 | – | – | –
C=CC1(C)CCC(C(C)(C)O)O1 (stereo unspecified) [linalool oxide] | 49.6 ± 19 | – | 15.9 ± 19 | – | 37 ± 28 | – | 46.5 ± 26 | 44.4 ± 31 | 42.8 ± 31 | – | – | –
CCCCCCCC(C)=O [2-Nonanone] | 49.6 ± 23 | – | 29.4 ± 30 | – | 39.1 ± 31 | – | 60.3 ± 23 | 58 ± 25 | 52.3 ± 32 | – | – | –
CCCCOC(C)=O [butyl acetate] | 61.1 ± 19 | – | 31.6 ± 24 | – | 43.7 ± 31 | – | 55.6 ± 27 | 76.5 ± 18 | 67.5 ± 29 | – | – | –
CC/C=C\CCO [cis-3-Hexen-1-ol] | 60 ± 22 | – | 39.7 ± 28 | – | 60.5 ± 30 | – | 51 ± 31 | 81.9 ± 16 | 69.6 ± 30 | – | – | –
CC(=O)c1ccc(C)o1 [2-Acetyl-5-methylfuran] | 47.4 ± 27 | – | 25.2 ± 31 | – | 38.2 ± 29 | – | 36.5 ± 25 | 71.5 ± 22 | 38.2 ± 28 | – | – | –
C=CCOC(=O)CCCCC [allyl hexanoate] | 49.2 ± 19 | – | 24.9 ± 27 | – | 34.4 ± 29 | – | 71.8 ± 22 | 57.3 ± 29 | 64.1 ± 27 | – | – | –
COc1nccnc1CC(C)C [2-isobutyl-3-methoxypyrazine] | 47.9 ± 26 | – | 71.7 ± 27 | – | 57.7 ± 30 | – | 31.2 ± 25 | 80.6 ± 19 | 50.1 ± 31 | – | – | –
CCCCCCC(=O)O [Heptanoic Acid] | 30.4 ± 25 | – | 49 ± 32 | – | 36.5 ± 28 | – | 21.5 ± 20 | 77.5 ± 23 | 43.8 ± 31 | – | – | –

Compound | perceived odor pleasantness rating [1, 4] | perceived odor pleasantness rating [1, 5] | perceived odor intensity rating [2, 4] | perceived odor intensity rating [2, 5] | perceived odor familiarity rating [3, 4] | perceived odor familiarity rating [3, 5] | perceived odor pleasantness rating [1, 6] | perceived odor intensity rating [2, 6] | perceived odor familiarity rating [3, 6] | perceived odor pleasantness rating [1, 7] | perceived odor intensity rating [2, 7] | perceived odor familiarity rating [3, 7]
N[C@@H](Cc1c[nH]cn1)C(=O)O [L-Histidine] | – | – | – | – | – | – | 44.3 ± 26 | 19.9 ± 24 | 28.5 ± 28 | 34.6 ± 26 | 53.2 ± 34 | 44.2 ± 29
CC/C=C\CCOC(=O)Cc1ccccc1 [cis-3-Hexenyl phenylacetate] | 52.2 ± 25 | – | 14.4 ± 23 | – | 37.5 ± 32 | – | 40.1 ± 26 | 51 ± 31 | 41.3 ± 30 | – | – | –
C=CCOC(=O)CCCCCC [Allyl heptanoate] | 55.4 ± 23 | – | 22.2 ± 26 | – | 37.8 ± 29 | – | 73.7 ± 20 | 53.9 ± 31 | 57.9 ± 31 | – | – | –
CC(O)c1ccccc1 (stereo not drawn) [alpha-Methylbenzyl alcohol] | 44.5 ± 23 | – | 15.4 ± 16 | – | 30.4 ± 30 | – | 50.4 ± 26 | 48.4 ± 30 | 45 ± 32 | – | – | –
CCc1nc(C)cs1 [2-Ethyl-4-methylthiazole] | 33.6 ± 24 | – | 73.1 ± 21 | – | 45.6 ± 29 | – | 16.6 ± 19 | 87 ± 15 | 43.6 ± 30 | – | – | –
CC(=O)OCc1ccccc1 [benzyl acetate] | 54.7 ± 20 | – | 36.3 ± 28 | – | 42.3 ± 27 | – | 60.4 ± 25 | 65.8 ± 29 | 52.3 ± 33 | – | – | –
CC(=O)c1ccc2ccccc2c1 [Methyl beta-naphthyl ketone] | – | – | – | – | – | – | 60.7 ± 25 | 63.8 ± 26 | 62.6 ± 27 | 54.4 ± 30 | 78.8 ± 16 | 58 ± 30
CCCCCCCCCC(=O)O [decanoic acid] | – | – | – | – | – | – | 28.7 ± 19 | 50.2 ± 30 | 40.6 ± 29 | 28.3 ± 26 | 75.9 ± 22 | 47.4 ± 34
C=CC(O)CCCC (stereo unspecified) [1-Hepten-3-ol] | 37.3 ± 26 | – | 53.7 ± 31 | – | 44.4 ± 32 | – | 24.3 ± 25 | 83.2 ± 18 | 41 ± 31 | – | – | –
CS(C)(=O)=O [Methyl sulfone] | – | – | – | – | – | – | 47.6 ± 20 | 22.7 ± 25 | 39.4 ± 28 | 61.1 ± 24 | 42.4 ± 32 | 51.6 ± 29
CC(=O)c1cccs1 [2-Acetylthiophene] | 46 ± 23 | 52.4 ± 25 | 43.9 ± 29 | 25.3 ± 28 | 42.4 ± 30 | 44.9 ± 30 | – | – | – | – | – | –
CSCC[C@H](N)C(=O)O [L-Methionine] | – | – | – | – | – | – | 31.5 ± 25 | 48.3 ± 34 | 41.6 ± 30 | 18.4 ± 21 | 78.9 ± 23 | 45.7 ± 36
CCCC(C)C(=O)O (stereo unspecified) [2-Methylpentanoic acid] | 50 ± 25 | 37.9 ± 24 | 31.7 ± 30 | 35.6 ± 33 | 37.4 ± 31 | 38 ± 29 | – | – | – | – | – | –
CC(C)COC(=O)/C=C/c1ccccc1 [Isobutyl cinnamate] | – | – | – | – | – | – | 54 ± 27 | 49.3 ± 33 | 38.6 ± 30 | 41.3 ± 30 | 70.4 ± 24 | 45.6 ± 31
CCCCCCCC(=O)OC [Methyl caprylate] | 50.1 ± 26 | – | 40.6 ± 29 | – | 40.5 ± 26 | – | 68.5 ± 23 | 47.9 ± 33 | 46.9 ± 32 | – | – | –
CC(=O)c1ccccc1N [2-Aminoacetophenone] | 58.4 ± 26 | – | 66.7 ± 27 | – | 52.7 ± 30 | – | 57.5 ± 27 | 71.9 ± 24 | 54.8 ± 30 | – | – | –
COC(OC)c1ccccc1 [Benzaldehyde dimethyl acetal] | 49.9 ± 24 | – | 29.2 ± 25 | – | 38.7 ± 29 | – | 35 ± 24 | 68.6 ± 24 | 41.5 ± 31 | – | – | –
O=C(O)CCCCC(=O)O [Adipic acid] | – | – | – | – | – | – | 38.5 ± 18 | 14 ± 16 | 34 ± 29 | 52.7 ± 24 | 35.7 ± 28 | 43.5 ± 27
